Results from PMC6934184, “Selective DNA-PKcs inhibition extends the therapeutic index of localized radiotherapy and chemotherapy” (The Journal of Clinical Investigation, 2019).

Molecular target: T1, CSNK2A1 (CK2 alpha 1) (Homo sapiens, UniProt P68400)
T1 construct: purchased Thermo Fisher Scientific (Life Technologies) SelectScreen
Assay: SelectScreen Z'LYTE
Type: biochemical
Outline: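 Percent values come from Thermo SelectScreen profiling of NU5455, combining activity and binding assays. CSF1R was run in Z'LYTE format at Km app ATP, and CAMK1 in Adapta format with ATP listed at 10.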

T1 sequence (P68400 whole entry): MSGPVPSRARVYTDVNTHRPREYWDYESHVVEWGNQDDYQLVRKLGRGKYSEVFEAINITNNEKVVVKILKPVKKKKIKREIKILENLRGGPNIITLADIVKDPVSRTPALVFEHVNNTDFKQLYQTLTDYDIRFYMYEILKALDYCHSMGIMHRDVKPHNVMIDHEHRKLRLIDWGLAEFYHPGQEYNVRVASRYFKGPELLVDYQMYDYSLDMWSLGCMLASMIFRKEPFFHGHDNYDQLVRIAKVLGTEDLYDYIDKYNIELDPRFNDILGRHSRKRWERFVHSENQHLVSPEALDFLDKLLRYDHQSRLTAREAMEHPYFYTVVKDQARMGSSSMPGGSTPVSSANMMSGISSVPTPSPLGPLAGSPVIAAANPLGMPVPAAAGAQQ

## CN(C(=O)CN1CCOCC1)c1ccc2sc3c(-c4cccc5c(=O)cc(N6CC7CCC(C6)O7)oc45)cccc3c2c1 [NU5455]
  inhibition at 1 µM: 7.1%
